Assay results from PubChem BioAssay (NCI).
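48-hour exposure; five concentrations; linearly interpolated endpoints. At the TGI there is no net growth.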

Tests used:
Assay in all cases: NCI-60 cell line screen, 48 h
LXFL 529 NSCLC = system: LXFL 529 NSCLC
HOP-62 NSCLC = system: HOP-62 NSCLC
UACC-257 melanoma = system: UACC-257 melanoma
SK-MEL-28 melanoma = system: SK-MEL-28 melanoma
UACC-62 melanoma = system: UACC-62 melanoma
DMS 114 small cell lung = system: DMS 114 small cell lung
SR leukemia = system: SR leukemia
HOP-92 NSCLC = system: HOP-92 NSCLC
DMS 273 small cell lung = system: DMS 273 small cell lung
SNB-78 CNS = system: SNB-78 CNS
HT29 colon = system: HT29 colon
RPMI-8226 leukemia = system: RPMI-8226 leukemia
A549 NSCLC = system: A549 NSCLC
HCT-15 colon = system: HCT-15 colon
HCC-2998 colon = system: HCC-2998 colon
DLD-1 colon = system: DLD-1 colon
TK-10 renal = system: TK-10 renal
SN12C renal = system: SN12C renal
SK-MEL-2 melanoma = system: SK-MEL-2 melanoma
SK-MEL-5 melanoma = system: SK-MEL-5 melanoma
MOLT-4 leukemia = system: MOLT-4 leukemia
COLO 205 colon = system: COLO 205 colon
EKVX NSCLC = system: EKVX NSCLC
UO-31 renal = system: UO-31 renal
OVCAR-8 ovarian = system: OVCAR-8 ovarian
SW-620 colon = system: SW-620 colon
MALME-3M melanoma = system: MALME-3M melanoma
A498 renal = system: A498 renal
NCI-H226 lung = system: NCI-H226 lung
SF-295 CNS = system: SF-295 CNS
M14 melanoma = system: M14 melanoma
HL-60(TB) leukemia = system: HL-60(TB) leukemia
NCI-H522 lung = system: NCI-H522 lung
NCI-H460 lung = system: NCI-H460 lung
OVCAR-4 ovarian = system: OVCAR-4 ovarian
KM12 colon = system: KM12 colon
K-562 leukemia = system: K-562 leukemia
KM20L2 colon = system: KM20L2 colon
LOX IMVI melanoma = system: LOX IMVI melanoma
RXF 393 renal = system: RXF 393 renal
OVCAR-3 ovarian = system: OVCAR-3 ovarian
OVCAR-5 ovarian = system: OVCAR-5 ovarian
M19-MEL melanoma = system: M19-MEL melanoma
NCI-H23 lung = system: NCI-H23 lung
SNB-19 CNS = system: SNB-19 CNS
SK-OV-3 ovarian = system: SK-OV-3 ovarian
IGROV1 ovarian = system: IGROV1 ovarian
786-0 renal = system: 786-0 renal
HOP-18 NSCLC = system: HOP-18 NSCLC
SF-539 CNS = system: SF-539 CNS
ACHN renal = system: ACHN renal
U251 CNS = system: U251 CNS
CAKI-1 renal = system: CAKI-1 renal
HCT-116 colon = system: HCT-116 colon
SNB-75 CNS = system: SNB-75 CNS
SF-268 CNS = system: SF-268 CNS
CCRF-CEM leukemia = system: CCRF-CEM leukemia

Measured: TGI

NNC(=O)/C(NC(=O)c1ccccc1)=C(\N)c1ccc(Cl)cc1
> 100 µM: LXFL 529 NSCLC | HOP-62 NSCLC | UACC-257 melanoma | SK-MEL-28 melanoma | UACC-62 melanoma | DMS 114 small cell lung | SR leukemia | HOP-92 NSCLC | DMS 273 small cell lung | SNB-78 CNS | HT29 colon | RPMI-8226 leukemia | A549 NSCLC | HCT-15 colon | HCC-2998 colon | DLD-1 colon | TK-10 renal | SN12C renal | SK-MEL-2 melanoma | SK-MEL-5 melanoma | MOLT-4 leukemia | COLO 205 colon | EKVX NSCLC | UO-31 renal | OVCAR-8 ovarian | SW-620 colon | MALME-3M melanoma | A498 renal | NCI-H226 lung | SF-295 CNS | M14 melanoma | HL-60(TB) leukemia | NCI-H522 lung | NCI-H460 lung | OVCAR-4 ovarian | KM12 colon | K-562 leukemia | KM20L2 colon | LOX IMVI melanoma | RXF 393 renal | OVCAR-3 ovarian | OVCAR-5 ovarian | M19-MEL melanoma | NCI-H23 lung | SNB-19 CNS | SK-OV-3 ovarian | IGROV1 ovarian | 786-0 renal | HOP-18 NSCLC | SF-539 CNS | ACHN renal | U251 CNS | CAKI-1 renal | HCT-116 colon | SNB-75 CNS | SF-268 CNS | CCRF-CEM leukemia

CC1C(=O)O[C@H]2C1CC[C@@]1(C)[C@H](O)CC[C@@]13C[C@]2(O)OO3 (stereo partly specified)
> 100 µM: LXFL 529 NSCLC | HOP-62 NSCLC | UACC-257 melanoma | SK-MEL-28 melanoma | UACC-62 melanoma | DMS 114 small cell lung | SR leukemia | HOP-92 NSCLC | DMS 273 small cell lung | HT29 colon | RPMI-8226 leukemia | A549 NSCLC | HCT-15 colon | HCC-2998 colon | DLD-1 colon | TK-10 renal | SN12C renal | SK-MEL-5 melanoma | MOLT-4 leukemia | COLO 205 colon | UO-31 renal | OVCAR-8 ovarian | SW-620 colon | MALME-3M melanoma | A498 renal | NCI-H226 lung | SF-295 CNS | M14 melanoma | HL-60(TB) leukemia | NCI-H460 lung | OVCAR-4 ovarian | K-562 leukemia | KM20L2 colon | LOX IMVI melanoma | OVCAR-3 ovarian | OVCAR-5 ovarian | M19-MEL melanoma | NCI-H23 lung | SNB-19 CNS | SK-OV-3 ovarian | IGROV1 ovarian | 786-0 renal | HOP-18 NSCLC | ACHN renal | U251 CNS | CAKI-1 renal | HCT-116 colon | SF-268 CNS | CCRF-CEM leukemia
